The source of these data is patent US4801593A, “Chemotherapeutic agents” (Burroughs Wellcome Co., priority 1979, dated 1989).

In the first assay the test system is virus. Briefly: Intranasal administration - simulation in vitro (plaque inhibition test, compound applied to the lids of the petri dishes). The following applies: 1 μg applied in ethanol to the lids of the petri dishes; confluent sheet of cells covered with agarose gel. In kind it is cell-based. An excerpt:
(§1) Activity may be detected by the plaque inhibition (PI) test and measured by the plaque reduction (PR) test. Both assays involve the formation of a monolayer cell culture in a petri dish followed by infection with a virus suspension, and then overlaying the culture with nutrient agarose in the form of a gel. This gel ensures that there is no spread of virus throughout the culture and thus areas of localised cell destruction, or plaques, are formed.
In the plaque inhibition test a filter paper disc which holds 0.01 ml when impregnated with a solution of compound is placed on top of the agarose gel. The compound may then diffuse throughout the gel so that its greatest concentration will be around the disc and its lowest concentration towards the periphery of the petri dish. The efficacy of the compound may be detected by observing the zone of inhibition of plaque formation.
Petri dishes were prepared, as for the plaque inhibition test and the confluent sheet of cells was covered with a layer of agarose gel. The compound, 2-phenyltetrahydroisoquinoline (1 μg) was dissolved in ethanol, and applied to the lids of the petri dishes. When the ethanol had evaporated, leaving the compound spread over the inside of the lids, these were replaced on the petri dishes.
Regarding `c1ccc(N2CCc3ccccc3C2)cc1` [Example 4, 2-phenyl-1,2,3,4-tetrahydroisoquinoline], the “inhibition of plaque formation” value is “total inhibition of plaque formation”.

The next assay concerns rhinovirus serotype 1B. Description: plaque reduction (PR) test. In kind it is cell-based. The following applies: Enterovirus, read-out: PR(ED50). The protocol:
as §1
Detectable activity is measured with the plaque reduction assay. A range of concentrations of compound of known molarity are incorporated in the nutrient agarose overlay. Plaque suppression is proportional to compound concentration. Plaque numbers are expressed as percentages of a control, and a dose response curve may be drawn. From this curve 50% of the effective dose(ED50) may be estimated.
For the molecule `c1ccc(N2CCc3ccccc3C2)cc1` [Example 4, 2-phenyl-1,2,3,4-tetrahydroisoquinoline], the EC50 worked out at 70 nM.

Still in this assay, the particulars now being: Enterovirus; Activity versus rhinovirus serotype 1B; monolayer cell culture, compound in nutrient agarose overlay; read-out: PR(ED50).
With `c1ccc(C2CCc3ccccc3S2)cc1` (centres unmarked) [Example 1, thioflavan], the EC50 stood at 28 nM.

Regarding `Clc1ccc(C2CCc3cc(Cl)ccc3S2)cc1` (centres unmarked) [Example 3, 4',6-dichlorothioflavan], the EC50 was found to be 44 nM.

With `Clc1ccc(N2CCc3ccccc3C2)cc1` [Example 7, 1,2,3,4-tetrahydro-2-(4-chlorophenyl)isoquinoline], the EC50 is 100 nM.

For the molecule `Fc1ccc(N2CCc3ccccc3C2)cc1` [Example 8, 1,2,3,4-tetrohydro-2-(4-fluorophenyl)isoquinoline], the EC50 stood at 210 nM.

With `Cc1ccc(N2CCc3ccccc3C2)cc1` [Example 11, 1,2,3,4-tetrahydro-2-(4-methylphenyl)isoquinoline], the EC50 was determined as 1000 nM.

On to `COc1ccc(N2CCc3ccccc3C2)cc1` [Example 12, 1,2,3,4-tetrahydro-2-(4-methoxyphenyl)isoquinoline], for which the EC50 turned out to be 2450 nM.

As for `Cc1cccc(C)c1N1CCc2ccccc2C1` [Example 13, 1,2,3,4-tetrahydro-2-(2,6-dimethylphenyl)isoquinoline], the EC50 was 75 nM.

Take `Oc1ccc(N2CCc3ccccc3C2)cc1` [Example 15, 1,2,3,4-tetrahydro-2-(4-hydroxyphenyl)isoquinoline]: the EC50 is 1850 nM.

Regarding `COc1ccc(N2CCc3ccccc3C2)c(OC)c1` [Example 16, 1,23,4-tetrahydro-2-(2-4-dimethoxyphenyl)isoquinoline], the EC50 is 8000 nM.

Turning to `Clc1ccc2c(c1)CCN(c1ccccc1)C2` [Example 18, 6-chloro-2-phenyl-1,2,3,4-tetrahydroisoquinoline], the EC50 is 570 nM.

Regarding `Clc1ccc(N2CCc3cc(Cl)ccc3C2)cc1` [Example 19, 1,2,3,4-tetrahydro-2-(4-chlorophenyl)-6-chloroisoquinoline], the EC50 is 50 nM.

`Fc1ccc(N2CCc3cc(Cl)ccc3C2)cc1` [Example 20, 1,2,3,4-tetrahydro-2-(4-fluorophenyl)-6-chloroisoquinoline]: the EC50 was determined as 210 nM.

As to `Clc1ccc2c(c1)CN(c1ccccc1)CC2` [Example 21, 7-chloro-2-phenyl-1,2,3,4-tetrahydroisoquinoline], the EC50 stood at 110 nM.

Turning to `Clc1ccc(N2CCc3ccc(Cl)cc3C2)cc1` [Example 22, 7-chloro-2-(4-chlorophenyl)-1,2,3,4-tetrahydroisoquinoline], the EC50 is 130 nM.

As for `Clc1ccc2c(c1)CN(c1ccc(Cl)c(Cl)c1)CC2` [Example 23, 7-chloro-2-(3,4-dichlorophenyl)-1,2,3,4-tetrahydroisoquinoline], the EC50 came to 620 nM.

For the molecule `c1ccc(C2CCc3ccccc3N2)cc1` (centres unmarked) [Example 24, 1,2,3,4-tetrahydro-2-phenylquinoline], the EC50 is 330 nM.

Take `c1ccc(C2Cc3ccccc3CN2)cc1` (centres unmarked) [Example 26, 3-phenyl-1,2,3,4-tetrahydroisoquinoline]: the EC50 was determined as 290 nM.

For the molecule `c1ccc(C2COc3ccccc3C2)cc1` (centres unmarked) [Example 27, isoflavan], the EC50 is 820 nM.
